Laboratory results from patent US20090069241A1, “Compositions and Methods for Use of Pigment Epithelial Derived Factor (PEDF) Peptide Fragments” (Yale University, priority 2006, published 2009).

How the values were obtained:
Type in all cases: in vivo, C57/B16 mice
Erk = experiment: Western blot of phosphorylated Erk in retinas after ischemic injury; settings: 48 hours after ischemic injury; control retinas: not detected at 48 hours
Procedure: (§1) Induction of transient retinal ischemia in C57/B16 mice: Animal experiments were conducted in accordance with ARVO guidelines and were approved by the Animal Care and Use Committee of Yale University School of Medicine. Transient retinal ischemia was induced in one eye and the contralateral eye served as control. During the operation and recovery period, animals were placed on water heating pads at 37° C. Eighty-one 10-14 weeks male C57/B16 mice (Charles River Laboratories, Wilmington, Mass., weighing […]) were used in this experiment. To induce retinal ischemia, a previously established technique with some modifications was used (Hughes, 1991, Exp Eye Res. 53(5):573-582; Buchi et al., 1991, Opthalmologica 203 (3): 138-147). Briefly, animals were anesthetized by i.p. injection of a mixture of 100 mg/kg Ketamine+10 mg/kg Xylazine. […]
(§2) The effect of PEDF82-121 on STAT3 and Erk after ischemic injury was examined by Western blot. In control retinas subjected to ischemic injury, phosphorylated STAT3 was detected at 24 hours but not at 1 hour, 4 hours, 12 hours or 48 hours after ischemic injury. […] In control retinas, phosphorylated Erk was detect strongly at 4 hours and 12 hours after ischemic injury but was barely detectable at 24 hours and not detected at 48 hours. […]

GFAP = GFAP immunocytochemical labeling of Müller glial cells after transient ischemia
Procedure: (§3) Induction of transient retinal ischemia in C57/B16 mice: Animal experiments were conducted in accordance with ARVO guidelines and were approved by the Animal Care and Use Committee of Yale University School of Medicine. Transient retinal ischemia was induced in one eye and the contralateral eye served as control. During the operation and recovery period, animals were placed on water heating pads at 37° C. Eighty-one 10-14 weeks male C57/B16 mice (Charles River Laboratories, Wilmington, Mass., weighing 25-358) were used in this experiment. To induce retinal ischemia, a previously established technique with some modifications was used (Hughes, 1991, Exp Eye Res. 53(5):573-582; Buchi et al., 1991, Opthalmologica 203 (3): 138-147). Briefly, animals were anesthetized by i.p. injection of a mixture of 100 mg/kg Ketamine+10 mg/kg Xylazine. The corneas were topically anesthetized with 0.5% proparacaine hydrochloride (Bausch & Lomb Pharmaceuticals, Inc., Tampa, Fla.), and the pupils dilated with 2.5% phenylephrine (Bausch & Lomb Pharmaceuticals, Inc., Tampa, Fla.). The anterior chambers were cannulated in fully anesthetized animals with a 30-gauge infusion needle connected by PE10 polyethylene tubing and IV set to a physiological saline reservoir. The intraocular pressure (IOP) of the cannulated eye was raised to 120 mmHg for 60 minutes by elevating the saline reservoir. Retinal ischemia was confirmed by direct microscopic observation of whitening of the fundus. The reperfusion was confirmed visually when needle was withdrawn from the anterior chamber. One group of animals was treated with Vetropolycin® ophthalmic ointment (Pharmaderm, Melville, N. Y.) on the ischemic eyes and allowed to recover for 24 hours, 48 hours, 7 days and 14 days before sacrifice. Other groups were kept for intravitreous injections of the PEDF and PEDF peptides.
Intravitreous injection of PEDF, PEDF peptides and encapsulated PEDF peptide: One group of animals remained uninjected to monitor ischemic damage. All other groups received intravitreal injections, which were performed under an ophthalmic microscope. Experimental groups received 1 μl native PEDF protein (1 μg/μl), PEDF82-121 peptide (1 μg/μl), PEDF76-95 peptide (1 μg/μl), PEDF91-110 peptide (1 μg/μl), PEDF106-125 peptide (1 μg/μl) or PLGA PEDF82-121 nanospheres (0.1 mg/μl, less than 1.6 μg PEDF82-121 peptide when fully released) immediately after the end of the transient ischemia. Intravitreous injection was performed with 30-gauge beveled needle attached to PE10 polyethylene tubing and a 10 μl syringe (Hamilton, Reno, Nev.). The injections were performed through the sclera, approximately 1 mm behind the limbus. The needle remained in the vitreous cavity for 30 seconds after injection then gently withdrawn. […]

[1] = test system: inner retina (INL, IPL, retinal ganglion cell layer); experiment: Transient retinal ischemia-reperfusion injury with intravitreous injection; morphometric analysis of inner retina; design: thickness of the INL compared with non-ischemia control / thickness of the IPL compared with non-ischemia control / surviving cells in the RGC layer compared with non-ischemia control: concentration or dose not given beside the values; settings: for surviving cells in the RGC layer compared with non-ischemia control / thickness of the INL compared with non-ischemia control / thickness of the IPL compared with non-ischemia control: single intravitreous injection immediately after ischemia
Procedure: as §3, with “Eighty-one 10-14 weeks male C57/B16 mice (Charles River Laboratories, Wilmington, Mass., weighing 25-358) were used in this experiment. To induce retinal ischemia, a previously established technique with some modifications was used (Hughes, 1991, Exp Eye Res. 53(5):573-582; Buchi et al., 1991, Opthalmologica 203 (3): 138-147).” left out, “The corneas were topically anesthetized with 0.5% proparacaine hydrochloride (Bausch & Lomb Pharmaceuticals, Inc., Tampa, Fla.), and the pupils dilated with 2.5% phenylephrine (Bausch & Lomb Pharmaceuticals, Inc., Tampa, Fla.).” left out
Intravitreous injection of PEDF, PEDF peptides and encapsulated PEDF peptide: One group of animals remained uninjected to monitor ischemic damage. All other groups received intravitreal injections, which were performed under an ophthalmic microscope. […] Intravitreous injection was performed with 30-gauge beveled needle attached to PE10 polyethylene tubing and a 10 μl syringe (Hamilton, Reno, Nev.). The injections were performed through the sclera, approximately 1 mm behind the limbus. The needle remained in the vitreous cavity for 30 seconds after injection then gently withdrawn. Control groups were injected with 1 μl PBS, 1 μl control peptide (1 μg/μl), or blank nanospheres (0.1 mg/μl). […] Vetropolycin® ointment was applied to the injected eyes and animals were allowed to recover for 48 hours or 7 days before sacrifice.
Preparation of retinal tissue: at designated time points, mice were sacrificed by carbon dioxide inhalation followed by, in some cases, cervical dislocation. The eyes were enucleated, fixed in 4% paraformaldehyde for 24 hours, washed with PBS and embedded in paraffin. Five (5) μm thick sections that included the optic nerve were collected. Sections were processed for TUNEL, immunocytochemistry, or histochemical staining with hematoxylin and eosin (Surgipath, Ltd, Richmond, Ill.) using standard methods.
Morphologic and Morphometric Analysis: For each eye, three sections, which included the optic disk and were spaced at least 20 μm apart, were used for morphological analysis. The fields analyzed were 4×250 μm zones sampled from all retinal eccentricities. These zones were 500 μm away from the edge of optic disk or the ora serrata. The average measurement of these 4 zones was used for statistical analysis. The mean thickness of inner nuclear layer (INL) and inner plexiform layer (IPL) was measured using Axiovision3.1 software (Carl Zeiss MicroImaging, Inc., Thornwood, N.Y.). Total surviving cells in the retinal ganglion cell layer at the same locations were counted using light microscopy.
Statistical analysis: Twelve fields per retina were analyzed for each treatment, and a total of 72 fields were used. For statistical analysis, one-way analysis of variance (ANOVA) and Fisher tests were performed; p<0.05 was taken as significant. Data are presented as means and standard deviations.

STAT3 = experiment: Western blot of phosphorylated STAT3 in retinas after ischemic injury; settings: 48 hours after ischemic injury; control retinas: detected only at 24 hours
Procedure: as §1, §2

[2] = 48 hours after ischemia reperfusion

“PEDF82-121: residues 82 to 121 of human PEDF, PLSVATALSALSLGAEQRTESIIHRALYYDLISSPDIHGT (SEQ ID NO: 3) ((1)..(40) Residues 82-121 of human PEDF; listed as Homo sapiens)” was tested, and the “presence of phosphorylated Erk” value (Erk) was “strongly detected at 48 hours”, the “GFAP labeling compared to PBS injections” value (GFAP; 48 hours after transient ischemia) was “less GFAP labeling” and the GFAP staining (GFAP; 7 days after injury) was “very similar staining”. For the same substance, the “surviving cells in the RGC layer compared with non-ischemia control” value [1, 2] was 80.1%, the “thickness of the INL compared with non-ischemia control” value [1, 2] was 100% and the “thickness of the IPL compared with non-ischemia control” value [1, 2] was 100%. For the same substance, the “protection of the retinal ganglion cell layer (in words)” value ([1]; 48 hours post ischemia, versus PBS or PEDF136-155) was “substantial protection”, the “surviving cells in the RGC layer compared with non-ischemia control” value ([1]; 7 days after injury) was 56.8% and the “thickness of the INL compared with non-ischemia control” value ([1]; 7 days after injury) was 72.8%. For the same substance, the “thickness of the IPL compared with non-ischemia control” value ([1]; 7 days after injury) was 62.7%, the “protection of the retinal ganglion cell layer (in words)” value ([1]; 7 days post ischemia, free single bolus or nanospheres) was “less” and the “IPL thickness after ischemic injury (in words)” value ([1]; compared to PBS injected controls, time not stated) was “maintained the thickness of the IPL”. The “presence of phosphorylated STAT3” value (STAT3) was “also detected at 48 hours”.
